Data from US12071411B2, “Inhibitors of HIF-2α and methods of use thereof” (ARCUS BIOSCIENCES, INC., priority 2021, dated 2024).
Read-outs that look alike come from different tables or passages of the source.

Key:
HIF-2α [1] = biological target: T1, HIF-2α (Homo sapiens, UniProt Q99814); experiment: HIF-2α Luciferase Reporter Assay (serum free) in HIF-Luc-786-0 cells; assay type: cell-based; conditions: Opti-MEM, 786-0 reporter cells, 20 hours incubation
Procedure: (§1) Generation of HIF-2α Luciferase 786-0 Cell Line:
(§2) Stable cell lines were generated by transducing 786-0 cells (ATCC, CRL-1932) with Cignal Lenti HIF Luc Reporter lentivirus (CLS-007L, Qiagen) according to the manufacturer's guidelines. In brief, 0.3×10^6 786-0 cells were transduced with lentivirus at a multiplicity of infection (MOI) of 25 for 24 hours. After transduction, cells were replenished with fresh RPMI 1640 Medium (Cat. No. 11875085, Thermo Fisher) supplemented with 10% FBS (Cat. No. A3160502, Gibco), 2 mM GlutaMAX™ (Cat. No. 35050-061, Invitrogen) and 100 units of penicillin and 100 μg of streptomycin/mL (Cat. No 15070063, Thermo Fisher) for another 24 hours. Antibiotic selection was performed in cell media containing 4 μg/mL of puromycin. After 7 days of antibiotic selection, stable pools of surviving cells were expanded and used in a luciferase reporter assay.
HIF-2α Luciferase Reporter Assay (Serum Free):
On day one, 20 uL of HIF-Luc-786-0 cells in Opti-MEM™ (Cat. No. 31985088, Thermo Fisher) were seeded into each well of a 384 well white opaque plate (Corning 3570) and incubated at 37° C. and 5% CO2. Twenty microliters of 2× test compounds in Opti-MEM™ were added to cells after 4 hours of incubation. Final assay conditions comprised 20,000 cells per well in 1% DMSO with test compound concentrations ranging from 50 uM to 0 uM. After 20 hours incubation at 37° C. and 5% CO2, luciferase activity was determined using ONE-Glo™ Luciferase Assay Reagent (E6110, Promega) following the manufacture's recommended procedure. Briefly, 40 uL of ONE-Glo™ luciferase reagents were added to each well and luciferase signals were measured using an Envision 2102 Multilabel Reader. Percentage maximum activity in each test well was calculated based on DMSO (maximum activity) and no cell control wells (baseline activity). The IC50 values of the test compounds were determined from compound dose response curves fitted using a standard four parameter fit equation.

HIF-2α [2] = biological target: T1, HIF-2α; experiment: HIF-2α Luciferase Reporter Assay (serum), HRE-luciferase 786-0 cells in 100% human serum; assay type: cell-based; conditions: for IC50: 100% human serum, 786-0 reporter cells, overnight incubation, read-out: Serum Potency
Procedure: as §1, §2
HIF-2α Luciferase Reporter Assay (Serum):
An HRE-luciferase stable reporter 786-0 cell line was maintained in active culture using RPMI 1640 (GIBCO) media supplemented with 1% penicillin-streptomycin, 1% GlutaMAX™, 10% FBS-One Shot (GIBCO) and 4 ug/ml of puromycin (Invitrogen). On the day of the assay, cells were harvested using StemPro™ Accutase™ cell dissociation reagent (GIBCO) and resuspended at 1.5 million cells per milliliter in Opti-MEM™ (GIBCO). 20 ul/well of the resuspended cells were dispensed into a 384 white tissue culture-treated microplate (Corning) and allowed to incubate at 37° C., 5% CO2 for 3 hours. Compounds were prepared by dispensing 0.8 ul of compound in 100% DMSO into a Greiner plate containing 40 ul/well of 100% human serum (Bioreclamation IVT). After 3 hours, media was removed via centrifugation at 500 RPM for 30 seconds and 30 ul/well of compound diluted in human serum was added. The plate was incubated overnight at 37° C., 5% CO2. The following day, ONE-Glo™ was prepared per vendors instructions. The cell plate was removed from the incubator and the human serum was removed from the plate using centrifugation at 500 RPM for 30 seconds. Following the removal of human serum, 40 ul/well of room temperature Opti-MEM™ was added to the plate and allowed to equilibrate to room temperature for 2 hours. 40 ul/well of ONE-Glo™ reagent was added and allowed to incubate for 10 minutes before reading the luminescence signal on the Envision (PerkinElmer). Data was analyzed using 4-parameter logistic equation to generate IC50.

[3] = ratio of IC50 in 100% serum to IC50 in serum free conditions, approximate

T1 sequence (Q99814 whole entry): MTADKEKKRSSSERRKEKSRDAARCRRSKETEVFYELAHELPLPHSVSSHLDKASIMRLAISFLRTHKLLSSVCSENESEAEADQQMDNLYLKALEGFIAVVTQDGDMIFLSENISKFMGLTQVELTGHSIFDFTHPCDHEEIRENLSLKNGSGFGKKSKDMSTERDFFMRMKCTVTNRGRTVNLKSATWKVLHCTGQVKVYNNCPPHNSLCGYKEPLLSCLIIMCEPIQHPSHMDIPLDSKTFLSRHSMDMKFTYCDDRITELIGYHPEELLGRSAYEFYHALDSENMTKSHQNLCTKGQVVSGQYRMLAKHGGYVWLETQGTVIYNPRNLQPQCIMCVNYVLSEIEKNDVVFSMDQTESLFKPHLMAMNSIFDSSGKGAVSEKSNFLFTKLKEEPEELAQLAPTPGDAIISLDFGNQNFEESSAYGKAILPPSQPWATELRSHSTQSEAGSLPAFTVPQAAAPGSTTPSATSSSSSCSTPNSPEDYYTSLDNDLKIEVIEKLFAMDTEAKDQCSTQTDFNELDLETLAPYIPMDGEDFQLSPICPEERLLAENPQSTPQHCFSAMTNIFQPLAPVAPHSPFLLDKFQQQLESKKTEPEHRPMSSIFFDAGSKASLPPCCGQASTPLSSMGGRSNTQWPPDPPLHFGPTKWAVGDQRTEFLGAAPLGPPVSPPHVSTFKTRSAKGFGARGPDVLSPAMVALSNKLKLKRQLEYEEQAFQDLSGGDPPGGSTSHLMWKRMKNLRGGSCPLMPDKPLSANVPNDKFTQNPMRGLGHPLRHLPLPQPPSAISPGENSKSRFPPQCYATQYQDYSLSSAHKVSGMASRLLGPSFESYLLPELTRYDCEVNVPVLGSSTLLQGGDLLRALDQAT

SMILES	IC50 (HIF-2α [1]) [nM]	IC50 (HIF-2α [2]) [nM]	Serum Shift (approximate) (HIF-2α [2]; [3])	Serum Shift (approximate) (HIF-2α [2])
CC(C#N)CCn1nc(C(F)(F)F)c2c1CC(F)(F)[C@H]2O (stereo partly drawn) [Example 55, 4-[(4S)-5,5-difluoro-4-hydroxy-3-(trifluoromethyl)-4,6-dihydrocyclopenta[c]pyrazol-1-yl]-2-methylbutanenitrile]	100 to 1000	100 to 1000	1	–
CCO[C@H](CCn1nc(C(F)(F)F)c2c1CC(F)(F)[C@H]2O)C(F)(F)F [Example 101, (4S)-1-[(3R)-3-ethoxy-4,4,4-trifluorobutyl]-5,5-difluoro-3-(trifluoromethyl)-4,6-dihydrocyclopenta[c]pyrazol-4-ol]	< 100	> 1000	11	–
O[C@H]1c2c(C(F)(F)F)nn(CC3CC3C(F)(F)F)c2CCC1(F)F (stereo partly drawn) [Example 59, (4S)-5,5-difluoro-3-(trifluoromethyl)-1-[[2-(trifluoromethyl)cyclopropyl]methyl]-6,7-dihydro-4H-indazol-4-ol]	100 to 1000	> 1000	7	–
O[C@H]1c2c(C(F)(F)F)nn(CC3CCC(F)(F)CC3)c2CC1(F)F [Example 113, (4S)-1-[(4,4-difluorocyclohexyl)methyl]-5,5-difluoro-3-(trifluoromethyl)-1H, 4H, 5H, 6H-cyclopenta[c]pyrazol-4-ol]	< 100	> 1000	14	–
O[C@H]1c2c(C(F)(F)F)nn(CCSC(F)F)c2CCC1(F)F [Example 18, (4S)-1-[2-(difluoromethylsulfanyl)ethyl]-5,5-difluoro-3-(trifluoromethyl)-6,7-dihydro-4H-indazol-4-ol]	100 to 1000	100 to 1000	4	–
CO[C@H]1C[C@@H](n2nc(C(F)(F)F)c3c2CC(F)(F)[C@H]3O)CCC1(F)F (racemic) [Example 109, (4S)-1-[(1S,3S)-4,4-difluoro-3-methoxycyclohexyl]-5,5-difluoro-3-(trifluoromethyl)-1H,4H,5H,6H-cyclopenta[c]pyrazol-4-ol and (4S)-1-[(1R,3R)-4,4-difluoro-3-methoxycyclohexyl]-5,5-difluoro-3-(trifluoromethyl)-1H,4H,5H,6H-cyclopenta[c]pyrazol-4-ol]	100 to 1000	100 to 1000	4	–
O[C@H]1c2c(C(F)(F)F)nn([C@@H]3C[C@@H](F)[C@@H](F)[C@@H](F)C3)c2CC1(F)F [Example 70, (4S)-5,5-difluoro-1-[(3R,5S)-3,4,5-trifluorocyclohexyl]-3-(trifluoromethyl)-4,6-dihydrocyclopenta[c]pyrazol-4-ol]	100 to 1000	100 to 1000	0	–
O[C@H]1c2c(C(F)(F)F)nn([C@H]3CCO[C@@H](C(F)(F)F)C3)c2CC1(F)F (single isomer, unassigned) [94/95 DIAST-1]	< 100	> 1000	17	–
O=S1(=O)CC(Cn2nc(C(F)(F)F)c3c2C[C@@H](F)[C@H]3O)C1 [Example 84, 3-{[(4S,5R)-5-fluoro-4-hydroxy-3-(trifluoromethyl)-1H,4H,5H,6H-cyclopenta[c]pyrazol-1-yl]methyl}-1λ^6-thietane-1,1-dione]	100 to 1000	> 1000	2	–
O[C@H]1c2c(C(F)(F)F)nn(C3CC4(C3)CC(F)(F)C4)c2[C@@H](F)[C@@H]1F (single isomer, unassigned) [Example 134]	< 100	> 1000	13	–
CO[C@H](CCn1nc(C(F)(F)F)c2c1[C@@H](F)C(F)(F)[C@H]2O)C(F)(F)F (single isomer, unassigned) [148/149 DIAST-2]	< 100	100 to 1000	12	–
O[C@H]1c2c(C(F)(F)F)nn([C@@H]3COCC(F)(F)C3)c2CC1(F)F [Example 87, (4S)-1-[(3S)-5,5-difluorooxan-3-yl]-5,5-difluoro-3-(trifluoromethyl)-1H,4H,5H,6H-cyclopenta[c]pyrazol-4-ol]	100 to 1000	> 1000	7	–
O[C@H]1c2c(C(F)(F)F)nn(-c3ccc(F)cc3)c2CC1(F)F [Example 114, (4S)-5,5-difluoro-1-(4-fluorophenyl)-3-(trifluoromethyl)-4,6-dihydrocyclopenta[c]pyrazol-4-ol]	100 to 1000	> 1000	–	27
O[C@H]1c2c(C(F)(F)F)nn(-c3ccc(C(F)(F)F)cc3)c2CC1(F)F [Example 117, (4S)-5,5-difluoro-3-(trifluoromethyl)-1-[4-(trifluoromethyl)phenyl]-4,6-dihydrocyclopenta[c]pyrazol-4-ol]	< 100	> 1000	>62	–
O[C@H]1c2c(C(F)(F)F)nn([C@H]3C[C@@H](COC(F)F)C3)c2CC1(F)F [Example 103, (4S)-1-[3-(difluoromethoxymethyl)cyclobutyl]-5,5-difluoro-3-(trifluoromethyl)-4,6-dihydrocyclopenta[c]pyrazol-4-ol]	> 1000	> 1000	7	–
O[C@H]1c2c(C(F)(F)F)nn(C[C@H](F)C3CC3)c2CCC1(F)F (single isomer, unassigned) [26/27 DIAST-2]	100 to 1000	> 1000	10	–
CO[C@H](CCn1nc(C(F)(F)F)c2c1CC(F)(F)[C@H]2O)C(F)(F)F [Example 61, (4S)-5,5-difluoro-1-[(3R)-4,4,4-trifluoro-3-methoxybutyl]-3-(trifluoromethyl)-4,6-dihydrocyclopenta[c]pyrazol-4-ol]	< 100	< 100	–	–
O[C@H]1c2c(C(F)(F)F)nn([C@H]3C[C@H](COC(F)F)C3)c2CC1(F)F [Example 102, (4S)-1-[3-(difluoromethoxymethyl)cyclobutyl]-5,5-difluoro-3-(trifluoromethyl)-4,6-dihydrocyclopenta[c]pyrazol-4-ol]	100 to 1000	> 1000	17	–
CS(=O)(=O)CCn1nc(C(F)(F)F)c2c1CC(F)(F)[C@H]2O [Example 56, (4S)-5,5-difluoro-1-(2-methylsulfonylethyl)-3-(trifluoromethyl)-4,6-dihydrocyclopenta[c]pyrazol-4-ol]	100 to 1000	100 to 1000	2	–
O[C@H]1c2c(C(F)(F)F)nn([C@H]3CCC[C@H](C(F)(F)F)C3)c2CC1(F)F [Example 81, (4S)-5,5-difluoro-3-(trifluoromethyl)-1-[(1S,3S)-3-(trifluoromethyl)cyclohexyl]-1H,4H,5H,6H-cyclopenta[c]pyrazol-4-ol]	100 to 1000	> 1000	49	–
[O-][S+](CCn1nc(C(F)(F)F)c2c1CCC(F)(F)[C@H]2O)C(F)F (stereo partly drawn) [Example 128, (4S)-1-[2-(difluoromethylsulfinyl)ethyl]-5,5-difluoro-3-(trifluoromethyl)-6,7-dihydro-4H-indazol-4-ol]	100 to 1000	> 1000	4	–
O[C@H]1c2c(C(F)(F)F)nn(-c3ccc(Cl)c(F)c3)c2CC1(F)F [Example 119, (4S)-1-(4-chloro-3-fluorophenyl)-5,5-difluoro-3-(trifluoromethyl)-4,6-dihydrocyclopenta[c]pyrazol-4-ol]	< 100	> 1000	73	–
